Active and inactive are the calls of the source. The rule behind the calls is not given here.
Experiments:
[1] = biological target: T1, Lysine-specific demethylase 5A (Homo sapiens, UniProt P29375); assay: Inhibition of C-terminal FLAG-tagged human KDM5A expressed in Sf9 cells pre-incubated for 4 hrs before substrate addition and measured after 1 hr by AlphaScreen assay
[2] = biological target: T2, Lysine-specific demethylase 4A (Homo sapiens, UniProt O75164); assay: Inhibition of C-terminal FLAG-tagged human KDM4A expressed in Escherichia coli pre-incubated for 4 hrs before substrate addition and measured after 1 hr by AlphaScreen assay
T2 sequence (O75164 whole entry): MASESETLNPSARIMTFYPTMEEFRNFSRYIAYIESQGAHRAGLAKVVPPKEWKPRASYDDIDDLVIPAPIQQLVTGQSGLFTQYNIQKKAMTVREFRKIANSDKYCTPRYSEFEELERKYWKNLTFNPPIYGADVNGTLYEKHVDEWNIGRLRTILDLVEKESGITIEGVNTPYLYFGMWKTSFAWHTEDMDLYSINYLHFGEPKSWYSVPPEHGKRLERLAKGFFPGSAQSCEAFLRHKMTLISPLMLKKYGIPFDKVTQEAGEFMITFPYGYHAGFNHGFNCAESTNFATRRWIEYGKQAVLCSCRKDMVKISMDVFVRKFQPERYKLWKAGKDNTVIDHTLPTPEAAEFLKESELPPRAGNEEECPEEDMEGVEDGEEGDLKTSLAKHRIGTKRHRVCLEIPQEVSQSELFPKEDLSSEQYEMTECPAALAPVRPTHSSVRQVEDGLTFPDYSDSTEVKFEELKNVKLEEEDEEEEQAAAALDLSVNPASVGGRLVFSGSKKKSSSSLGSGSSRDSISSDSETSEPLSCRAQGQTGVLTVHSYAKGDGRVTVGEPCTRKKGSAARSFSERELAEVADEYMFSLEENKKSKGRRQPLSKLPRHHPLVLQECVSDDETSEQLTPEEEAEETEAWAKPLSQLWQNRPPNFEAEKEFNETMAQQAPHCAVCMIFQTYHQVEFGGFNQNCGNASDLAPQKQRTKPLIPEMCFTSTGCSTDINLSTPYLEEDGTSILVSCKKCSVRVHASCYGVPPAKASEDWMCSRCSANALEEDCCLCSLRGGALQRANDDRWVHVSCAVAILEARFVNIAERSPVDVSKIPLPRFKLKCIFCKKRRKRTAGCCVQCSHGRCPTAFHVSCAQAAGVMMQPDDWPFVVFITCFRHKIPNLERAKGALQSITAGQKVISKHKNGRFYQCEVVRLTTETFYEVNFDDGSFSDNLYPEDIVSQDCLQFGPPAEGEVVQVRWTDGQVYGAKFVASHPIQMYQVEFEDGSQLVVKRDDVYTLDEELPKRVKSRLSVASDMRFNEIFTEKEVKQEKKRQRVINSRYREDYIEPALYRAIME

[3] = biological target: T1, Lysine-specific demethylase 5A; assay: Inhibition of C-terminal FLAG-tagged human KDM5A expressed in Sf9 cells at 50 uM pre-incubated for 4 hrs before substrate addition and measured after 1 hr by AlphaScreen assay
[4] = biological target: T1, Lysine-specific demethylase 5A; assay: Inhibition of KDM5A in human A549 cells assessed as H3K4me3/H3 ratio level at 100 uM levels incubated for 24 hrs by Western blot analysis relative to control; assay type: cell-based
[5] = biological target: T1, Lysine-specific demethylase 5A; assay: Inhibition of C-terminal FLAG-tagged human KDM5A expressed in Sf9 cells at 200 uM pre-incubated for 15 mins before H3(1-21)K4me3 peptide substrate addition in presence of 50 uM alpha-KG by formaldehyde dehydrogenase coupled demethylase assay
[6] = biological target: T1, Lysine-specific demethylase 5A; assay: Inhibition of KDM5A in human A549 cells assessed as H3K4me3/H3 ratio level at 250 uM levels incubated for 24 hrs by Western blot analysis relative to control; assay type: cell-based
[7] = biological target: T1, Lysine-specific demethylase 5A; assay: Inhibition of KDM5A in human A549 cells assessed as H3K4me3/H3 ratio level at 50 uM levels incubated for 24 hrs by Western blot analysis relative to control; assay type: cell-based
[8] = biological target: Lysine-specific demethylase 6B (Homo sapiens) (UniProt O15054); assay: Inhibition of C-terminal FLAG-tagged human KDM6B expressed in expressed in Sf9 cells at 50 uM pre-incubated for 4 hrs before substrate addition and measured after 1 hr by AlphaScreen assay
Lysine-specific demethylase 6B (Homo sapiens), sequence (O15054 whole entry): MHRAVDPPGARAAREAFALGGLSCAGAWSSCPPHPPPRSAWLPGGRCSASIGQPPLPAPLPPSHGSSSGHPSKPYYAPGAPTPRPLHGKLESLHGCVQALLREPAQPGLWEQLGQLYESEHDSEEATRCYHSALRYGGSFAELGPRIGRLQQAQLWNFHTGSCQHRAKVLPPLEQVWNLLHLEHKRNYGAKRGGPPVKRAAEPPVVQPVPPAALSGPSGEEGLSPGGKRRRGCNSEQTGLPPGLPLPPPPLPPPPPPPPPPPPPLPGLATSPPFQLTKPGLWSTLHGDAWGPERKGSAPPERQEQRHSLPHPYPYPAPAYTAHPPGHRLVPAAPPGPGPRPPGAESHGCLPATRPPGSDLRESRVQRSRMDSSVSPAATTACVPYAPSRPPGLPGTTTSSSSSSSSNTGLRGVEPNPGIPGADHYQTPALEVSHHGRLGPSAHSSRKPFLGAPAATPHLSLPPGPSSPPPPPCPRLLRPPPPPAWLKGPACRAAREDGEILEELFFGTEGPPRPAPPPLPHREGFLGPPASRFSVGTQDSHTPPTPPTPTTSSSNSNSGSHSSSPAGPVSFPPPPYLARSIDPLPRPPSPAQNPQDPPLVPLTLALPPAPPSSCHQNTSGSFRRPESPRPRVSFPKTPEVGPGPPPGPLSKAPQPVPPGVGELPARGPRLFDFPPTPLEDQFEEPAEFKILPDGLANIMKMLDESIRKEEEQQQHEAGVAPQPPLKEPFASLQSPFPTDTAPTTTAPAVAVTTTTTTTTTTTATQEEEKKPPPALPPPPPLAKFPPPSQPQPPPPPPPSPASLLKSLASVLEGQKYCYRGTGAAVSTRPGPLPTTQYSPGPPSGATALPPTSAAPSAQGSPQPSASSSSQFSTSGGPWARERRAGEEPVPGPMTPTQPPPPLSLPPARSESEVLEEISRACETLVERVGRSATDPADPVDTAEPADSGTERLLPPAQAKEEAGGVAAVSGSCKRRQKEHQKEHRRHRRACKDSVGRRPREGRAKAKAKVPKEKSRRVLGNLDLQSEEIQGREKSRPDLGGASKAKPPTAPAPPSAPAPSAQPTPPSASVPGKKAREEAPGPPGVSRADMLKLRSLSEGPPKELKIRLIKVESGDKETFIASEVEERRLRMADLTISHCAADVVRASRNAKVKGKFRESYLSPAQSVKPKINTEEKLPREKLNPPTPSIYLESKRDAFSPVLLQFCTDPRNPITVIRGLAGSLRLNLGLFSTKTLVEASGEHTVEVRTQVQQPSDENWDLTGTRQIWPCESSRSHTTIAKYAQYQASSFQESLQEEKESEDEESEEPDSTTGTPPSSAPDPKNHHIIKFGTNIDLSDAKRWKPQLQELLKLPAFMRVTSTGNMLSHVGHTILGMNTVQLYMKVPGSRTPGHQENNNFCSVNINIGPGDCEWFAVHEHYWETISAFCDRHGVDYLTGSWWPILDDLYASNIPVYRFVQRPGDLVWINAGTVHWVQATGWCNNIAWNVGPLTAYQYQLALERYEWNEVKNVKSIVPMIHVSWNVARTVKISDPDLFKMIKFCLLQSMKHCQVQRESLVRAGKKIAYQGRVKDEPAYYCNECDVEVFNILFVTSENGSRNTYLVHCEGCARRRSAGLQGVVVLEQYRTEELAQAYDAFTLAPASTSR

A549 = assay: Cytotoxicity in human A549 cells assessed as reduction in cell viability at 250 uM; assay type: functional, cell-based
[9] = biological target: T1, Lysine-specific demethylase 5A; assay: Inhibition of C-terminal FLAG-tagged human KDM5A expressed in Sf9 cells at 200 uM pre-incubated for 15 mins before H3(1-21)K4me3 peptide substrate addition in presence of 1000 uM alpha-KG by formaldehyde dehydrogenase coupled demethylase assay
[10] = biological target: Histone deacetylase 1 (Homo sapiens) (UniProt Q13547); assay: Inhibition of C-terminal GST-tagged full-length human HDAC1 expressed in Sf9 cells at 100 uM pre-incubated for 10 mins before substrate addition and measured after 20 mins by fluorescence assay
Histone deacetylase 1 (Homo sapiens), sequence (Q13547 whole entry): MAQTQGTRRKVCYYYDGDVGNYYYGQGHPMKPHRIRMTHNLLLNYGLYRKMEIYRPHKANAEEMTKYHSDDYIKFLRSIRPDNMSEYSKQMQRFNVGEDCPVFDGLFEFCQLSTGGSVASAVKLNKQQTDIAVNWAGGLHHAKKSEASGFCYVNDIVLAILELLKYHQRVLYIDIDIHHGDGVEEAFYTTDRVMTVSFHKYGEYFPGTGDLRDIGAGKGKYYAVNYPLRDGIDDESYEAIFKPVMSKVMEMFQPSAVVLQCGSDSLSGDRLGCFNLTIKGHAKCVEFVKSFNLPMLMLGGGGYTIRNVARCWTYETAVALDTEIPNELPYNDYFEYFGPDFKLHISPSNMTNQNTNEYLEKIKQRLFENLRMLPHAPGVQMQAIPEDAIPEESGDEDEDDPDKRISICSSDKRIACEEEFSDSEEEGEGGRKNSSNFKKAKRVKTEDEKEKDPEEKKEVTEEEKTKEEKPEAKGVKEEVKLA

[11] = biological target: T3, Lysine-specific demethylase 4A (Homo sapiens) (UniProt O75164); assay: Inhibition of C-terminal FLAG-tagged human KDM4A expressed in Escherichia coli at 50 uM pre-incubated for 4 hrs before substrate addition and measured after 1 hr by AlphaScreen assay
T3 sequence (whole entry): T2 sequence (O75164 whole entry)

[12] = biological target: T1, Lysine-specific demethylase 5A; assay: Inhibition of KDM5A in human A549 cells assessed as increase in H3K4me3/H3 levels incubated for 24 hrs by Western blot analysis; assay type: cell-based
[13] = biological target: T1, Lysine-specific demethylase 5A; assay: Inhibition of KDM5A in human A549 cells assessed as increase in H3K4me3/H3 ratio level at 50 to 250 uM levels incubated for 24 hrs by Western blot analysis relative to control; assay type: cell-based

T1 sequence (P29375 whole entry): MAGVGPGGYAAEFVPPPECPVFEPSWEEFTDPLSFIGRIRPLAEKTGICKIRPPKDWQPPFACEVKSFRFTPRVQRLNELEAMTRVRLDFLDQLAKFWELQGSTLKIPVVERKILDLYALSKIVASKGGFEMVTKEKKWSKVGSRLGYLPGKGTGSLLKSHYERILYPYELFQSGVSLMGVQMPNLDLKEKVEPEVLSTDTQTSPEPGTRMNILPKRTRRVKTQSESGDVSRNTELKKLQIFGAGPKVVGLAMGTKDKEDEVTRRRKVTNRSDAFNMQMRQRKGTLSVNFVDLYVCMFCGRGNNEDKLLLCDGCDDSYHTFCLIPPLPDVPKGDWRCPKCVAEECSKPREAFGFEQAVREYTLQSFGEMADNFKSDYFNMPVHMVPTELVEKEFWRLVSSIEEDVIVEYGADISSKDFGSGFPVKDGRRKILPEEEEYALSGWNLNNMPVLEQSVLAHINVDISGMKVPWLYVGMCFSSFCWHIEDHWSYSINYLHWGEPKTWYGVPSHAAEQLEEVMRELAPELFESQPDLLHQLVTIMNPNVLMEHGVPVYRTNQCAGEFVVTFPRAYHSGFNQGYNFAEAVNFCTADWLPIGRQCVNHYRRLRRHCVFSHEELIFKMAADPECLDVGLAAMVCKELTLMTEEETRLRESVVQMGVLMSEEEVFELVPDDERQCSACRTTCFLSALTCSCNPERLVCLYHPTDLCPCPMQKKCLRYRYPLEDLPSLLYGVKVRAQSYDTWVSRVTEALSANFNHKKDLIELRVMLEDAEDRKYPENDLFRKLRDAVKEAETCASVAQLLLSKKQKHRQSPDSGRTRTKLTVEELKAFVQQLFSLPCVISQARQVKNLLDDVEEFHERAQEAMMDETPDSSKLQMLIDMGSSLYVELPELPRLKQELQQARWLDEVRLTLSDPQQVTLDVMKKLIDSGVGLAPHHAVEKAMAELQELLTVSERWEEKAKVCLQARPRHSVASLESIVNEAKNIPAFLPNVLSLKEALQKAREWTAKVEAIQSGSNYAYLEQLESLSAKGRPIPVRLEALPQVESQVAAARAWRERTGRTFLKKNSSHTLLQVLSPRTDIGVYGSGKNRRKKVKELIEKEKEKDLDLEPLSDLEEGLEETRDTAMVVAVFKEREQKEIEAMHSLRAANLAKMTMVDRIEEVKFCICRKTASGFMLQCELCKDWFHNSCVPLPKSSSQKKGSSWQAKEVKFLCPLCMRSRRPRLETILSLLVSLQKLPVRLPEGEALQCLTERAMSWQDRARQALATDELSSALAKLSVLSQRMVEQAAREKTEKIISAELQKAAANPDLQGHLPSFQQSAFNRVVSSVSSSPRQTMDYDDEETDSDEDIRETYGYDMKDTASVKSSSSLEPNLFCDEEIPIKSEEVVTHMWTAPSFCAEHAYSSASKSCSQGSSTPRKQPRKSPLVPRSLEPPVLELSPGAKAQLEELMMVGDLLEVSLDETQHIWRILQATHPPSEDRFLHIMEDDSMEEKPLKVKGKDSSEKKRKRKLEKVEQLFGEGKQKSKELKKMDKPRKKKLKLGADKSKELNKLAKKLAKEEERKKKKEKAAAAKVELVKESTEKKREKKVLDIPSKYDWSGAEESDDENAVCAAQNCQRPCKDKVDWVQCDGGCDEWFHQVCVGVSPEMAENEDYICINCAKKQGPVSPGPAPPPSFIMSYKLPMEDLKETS

## CCCCCN(C)CCCCC(=O)N(O)CCC(=O)O
[1]
  IC50: 0.079 µM

## O=C(O)CNC(=O)C(=O)O [N-OXALYLGLYCINE]
[2]
  IC50: 85 µM

## O=CNc1cc(C(=O)O)ccc1O
[3]
  inhibition: 73%
[1]
  IC50: 48 µM

## CC(=O)Nc1ccc(C(=O)O)cc1N
[3]
  inhibition: inactive

## O=CNc1ccc(C(=O)O)cc1O
[4]
  Ratio: 1.01
[5]
  inhibition: 97%
[3]
  inhibition: 87%
[6]
  Ratio: 0.96
[7]
  Ratio: 0.93
[8]
  inhibition: 38%
A549
  Activity: inactive
[9]
  inhibition: 44%
[10]
  inhibition: 6%
[1]
  IC50: 46 µM
[11]
  inhibition: 20%

## CC(=O)Nc1cc(C(=O)O)ccc1O
[3]
  inhibition: Active

## CC(=O)Nc1ccc(C(=O)O)cc1O
[3]
  inhibition: Active

## COC(=O)c1ccc(NC=O)c(O)c1
[4]
  Ratio: 1.72
[12]
  inhibition: Dose-dependent effect
[6]
  Ratio: 2.15
[7]
  Ratio: 1.31
A549
  Activity: inactive
[13]
  fold change (FC): 1.7 to 2.2

— ChEMBL document CHEMBL4392841, “Identification of ortho-hydroxy anilide as a novel scaffold for lysine demethylase 5 inhibitors” (Bioorg Med Chem Lett, 2019)
